From patent US20070036809A1, “Tolerance-induced targeted antibody production” (priority 2003, published 2007)

Experiments:
[1] = test system: BMRPA1 cells; experiment: NNK exposure of BMRPA1 cells, morphology; assay type: cell-based, rat; details: one 16 hour exposure
Experimental: NNK Exposures: All preparations of the carcinogen-containing media were made in a separate laboratory within a NCI-designed and certified chemical hood using prescribed protective measures. NNK (American Health Foundation, N.Y.) was prepared as a stock solution of 10 mg NNK in PBS and added to FBS-free cRPMI to make final concentrations of 100, 50, 10, 5, and 1 μg/ml. BMRPA1 cells at passage 36 (p36) were seeded at 10^5/60 mm TCDs and allowed to grow for 6 d. At this time the medium was removed, and the cells were washed 2× with prewarmed (37° C.), FBS-free cRPMI before they were treated with FBS-free cRPMI (4 ml/TCD) containing the different concentrations of NNK. A 6th set of TCDs containing BMRPA1 cells was incubated in FBS-free cRPMI without NNK and was used as controls. The eight TCDs used for each of the six sets of different culture conditions were returned to the 37° C. and 95% air-5% CO2 incubator. After 16 h, the NNK-containing medium was removed from all TCDs and the cells were washed 3× with PBS followed by addition of fresh cRPMI-10% FBS (4 ml/TCD), and the incubation continued. Control cultures without NNK were processed in parallel. The cells were fed every 2 d by replacing ½ of the spent medium with fresh cRPMI-10% FBS. At full confluency the cells were collected from all TCDs, the cells in each group were pooled, and passaged at 2×10^4 into fresh TCDs.

[2] = test system: BMRPA1 antigens
Experimental: Immunosubtractive Hyperimmunization Protocol (ISHIP): A mixture of live (10^6) and paraformaldehyde fixed and washed (10^6) cells was used for each immunization intraperitoneally (ip). Six female Balb/c mice (age˜12 wks) (Harlan-Sprague Dawley Labs, St. Louis) were used: two mice were injected 4× during standard immunizations with BMRPA1 cells. […] The other two immunosuppressed mice were injected weekly three more times with transformed BMRPA1.NNK cells, and a week later the mice were hyperimmunized with 5 additional injections of transformed BMRPA1.NNK cells in the 10 days preceding fusion (ISHIP mice). Sera were obtained from all mice within a week after the indicated number of immunizations.
Cell-Enzyme ImmunoAssay (Cell-EIA): BMRPA1 and BMRPA1.NNK cells were seeded in TCPs (96-wells) at 3×10^4/well with 0.1 mL cRPMI-10% FBS. The cells were allowed to adhere for 24 h, air dried, and stored under vacuum at RT. The cells were then rehydrated with PBS-1% BSA, followed by addition of either hybridoma supernatants or two fold serial dilutions of mouse sera to each well for 45 min at room temperature (RT). After washing with PBS-BSA, HRP-GαMIgG (1:100 in PBS-1% BSA) was added to each well for 45 min at RT. […] The substrate color development was assessed at OD490nm with a microplate reader (Bio-Rad 3550). […]

SMILES | Phenotypical changes of neoplastic transformation ([1]; 1 μg/ml NNK) | Cytotoxic changes ([1]; 5 and 1 μg NNK/mL) | Appearance of phenotypical changes indicative of neoplastic transformation ([1]; 100, 50, 10 μg NNK/ml) | Cytotoxic changes ([1]; larger concentrations of NNK (100, 50, 10 μg NNK/mL), serum free medium) | Immunosuppression of antibody titer to BMRPA1 cells (Cell-EIA with sera) ([2]; 3 injections of BMRPA1 cells, then cyclophosphamide i.p. for 5 days, 60 μg/day/g body weight) | Staining of rat pancreatic tissue by sera of BMRPA1 immunized, cyclophosphamide-treated mice ([2]; immunohistochemistry on rat pancreas)
CN(CCCC(=O)c1cccnc1)N=O [NNK, 4-(methyl-nitrosamino)-1-(3-pyridyl)-1 butanone] | phenotypical changes characteristic of neoplastic transformation but at a slower rate, over several weeks | observed considerably less | within a week | cytotoxic changes consisting of poorly attached, degenerating, dying cells, and slowed cell growth |  | 
O=P1(N(CCCl)CCCl)NCCCO1 (stereo not drawn) [cyclophosphamide] |  |  |  |  | strong immunosuppression | virtually no staining
